{"source": "patent EP0024779A1", "about": "“Drugs for use with intrauterine devices and intrauterine devices containing said drugs” (Shaw, Seth Thomas, Jr., priority 1979, dated 1981)"}
{"tested_on": "fibrinolytic activity", "test": "Fibrinolytic inhibition, potency relative to dibromopropamidine", "type": "biochemical", "settings": "on a molar concentration basis", "text": "(§1) The numerical values are expressed as a reciprocal of the concentration of the drug producing the equivalent inhibition to the dibromopropamidine. Where no values for relative potency are listed such values have not been specifically determined.", "units": {"anti-fibrinolytic effect greater than that of dibromopropamidine": "times"}}
{"smiles": "N=C(N)Nc1ccc(C(=O)Oc2ccc([N+](=O)[O-])cc2)cc1", "note": "[NPG3, p-nitrophenyl-p'-guanidinobenzoate]", "anti-fibrinolytic effect greater than that of dibromopropamidine": "~100"}
{"tested_on": "fibrinolytic activity", "test": "Fibrinolytic inhibition, potency relative to dibromopropamidine", "type": "biochemical", "settings": "relative to dibromopropamidine; reciprocal of the concentration producing inhibition equivalent to dibromopropamidine", "text": "as §1"}
{"smiles": "N=C(N)c1ccc(OCCCCCCOc2ccc(C(=N)N)cc2Cl)c(Cl)c1", "note": "[Dichlorohexamidine]", "Relative Potency": 1.9}
{"smiles": "N=C(N)c1ccc(Oc2ccc(C(=N)N)cc2)cc1", "note": "[Phenamidine]", "Relative Potency": 0.2}
{"smiles": "N=C(N)c1ccc(OCCCCCCOc2ccc(C(=N)N)cc2I)c(I)c1", "note": "[Diiodohexamidine]", "Relative Potency": 7.5}
{"smiles": "N=C(N)c1ccc(OCCCCCCOc2ccc(C(=N)N)cc2I)cc1", "note": "[Monoiodohexamidine]", "Relative Potency": 4.4}
{"smiles": "N=C(N)c1ccc(OCCCCCCCCOc2ccc(C(=N)N)cc2)cc1", "note": "[Octamidine]", "Relative Potency": 2.6}
{"smiles": "N=C(N)c1ccc(OCCCOc2ccc(C(=N)N)cc2)cc1", "note": "[Propamidine]", "Relative Potency": 1.2}
{"smiles": "N=C(N)c1ccc(OCCCCCCCOc2ccc(C(=N)N)cc2)cc1", "note": "[Heptamidine]", "Relative Potency": 1.9}
{"smiles": "N=C(N)c1ccc(OCCCCCOc2ccc(C(=N)N)cc2Br)c(Br)c1", "note": "[Dibromopentamidine]", "Relative Potency": 3.6}
{"smiles": "N=C(N)c1ccc(OCCCCCCOc2ccc(C(=N)N)cc2)cc1", "note": "[Hexamidine]", "Relative Potency": 1.6}
{"smiles": "N=C(N)c1cccc(OCCCCCOc2cccc(C(=N)N)c2)c1", "note": "[m-Pentamidine]", "Relative Potency": 0.6}
{"smiles": "N=C(N)c1ccc(OCCCCCOc2ccc(C(=N)N)cc2)cc1", "note": "[Pentamidine]", "Relative Potency": 2.4}
{"smiles": "N=C(N)c1ccc(OCCCCCOc2ccc(C(=N)N)cc2I)c(I)c1", "note": "[Diiodopentamidine]", "Relative Potency": 6.8}
{"smiles": "N=C(N)c1ccc(OCCCOc2ccc(C(=N)N)cc2Br)c(Br)c1", "note": "[Dibromopropamidine]", "Relative Potency": 1.0}
{"tested_on": "fibrinolytic activity", "test": "not given", "settings": "over a prolonged period of time inside the uterus; cited from earlier work", "units": {"inhibitor concentration required to be effective": "mol/L"}}
{"smiles": "NCCCCCC(=O)O", "note": "[EACA, epsilon aminocaproic acid]", "inhibitor concentration required to be effective": 0.001}
{"smiles": "NC[C@H]1CC[C@H](C(=O)O)CC1", "note": "[tranexamic acid]", "inhibitor concentration required to be effective": 0.0001}
{"tested_on": "IUD associated uterine hemmorhage", "test": "not given", "settings": "systemic (oral) intake; cited from earlier work"}
{"smiles": "NCCCCCC(=O)O", "note": "[EACA, epsilon aminocaproic acid]", "IUD associated uterine hemmorhage": "alleviated"}
{"smiles": "NC[C@H]1CC[C@H](C(=O)O)CC1", "note": "[tranexamic acid]", "IUD associated uterine hemmorhage": "alleviated"}
